Values after ≈ are worked out from the molar mass of the structure shown.
Assays:
Test in all cases: Liquid broth MIC in Fastidious broth
[1] = tested on: N. gonorrhoeae WHO G; conditions: Neisseria gonorrhoeae, read-out: Minimum Inhibitory Concentration, WHO G
[2] = tested on: N. gonorrhoeae WHO X; conditions: Neisseria gonorrhoeae, read-out: Minimum Inhibitory Concentration, WHO X
[3] = tested on: N. gonorrhoeae WHO L; conditions: Neisseria gonorrhoeae, read-out: Minimum Inhibitory Concentration, WHO L

| SMILES | MIC [1] | MIC [2] | MIC [3] |
| --- | --- | --- | --- |
| O=C(NCCS(=O)(=O)N1CCN(C(=O)N[C@H](C(=O)N[C@H]2Cc3ccc(F)c(C(=O)O)c3OB2O)c2cc(F)c(O)c(O)c2Cl)C1=O)c1ccc(O)cc1 [Example 286, (R)-3-((S)-2-(2-chloro-5-fluoro-3,4-dihydroxyphenyl)-2-(3-((2-(4-hydroxybenzamido)ethyl)sulfonyl)-2-oxoimidazolidine-1-carboxamido)acetamido)-7-fluoro-2-hydroxy-3,4-dihydro-2H-benzo[e][1,2]oxaborinine-8-carboxylic acid] | > 64 mg/L | > 64 mg/L | > 64 mg/L |
| O=C(NCCS(=O)(=O)N1CCN(C(=O)N[C@@H](C(=O)N[C@H]2Cc3ccc(F)c(C(=O)O)c3OB2O)c2cc(F)c(O)c(O)c2Cl)C1=O)c1ccc(O)cc1 [Example 287, (R)-3-((R)-2-(2-chloro-5-fluoro-3,4-dihydroxyphenyl)-2-(3-((2-(4-hydroxybenzamido)ethyl)sulfonyl)-2-oxoimidazolidine-1-carboxamido)acetamido)-7-fluoro-2-hydroxy-3,4-dihydro-2H-benzo[e][1,2]oxaborinine-8-carboxylic acid] | 4 to 8 mg/L (≈ 5.12 to 10.2 µM) | > 64 mg/L | > 64 mg/L |
| O=C(NCCS(=O)(=O)N1CCN(C(=O)NC(C(=O)N[C@H]2Cc3ccc(F)c(C(=O)O)c3OB2O)c2cc(F)c(O)c(O)c2Cl)C1=O)c1ccncc1 (stereo partly drawn) [Example 288, (3R)-3-(2-(2-chloro-5-fluoro-3,4-dihydroxyphenyl)-2-(3-((2-(isonicotinamido)ethyl)sulfonyl)-2-oxoimidazolidine-1-carboxamido)acetamido)-7-fluoro-2-hydroxy-3,4-dihydro-2H-benzo[e][1,2]oxaborinine-8-carboxylic acid] | 4 to 8 mg/L (≈ 5.22 to 10.4 µM) | > 64 mg/L | > 64 mg/L |
| O=C(NCCS(=O)(=O)N1CCN(C(=O)NC(C(=O)N[C@H]2Cc3ccc(F)c(C(=O)O)c3OB2O)c2cc(F)c(O)c(O)c2Cl)C1=O)Nc1ccc(O)cc1 (stereo partly drawn) [Example 289, (3R)-3-(2-(2-chloro-5-fluoro-3,4-dihydroxyphenyl)-2-(3-((2-(3-(4-hydroxyphenyl)ureido)ethyl)sulfonyl)-2-oxoimidazolidine-1-carboxamido)acetamido)-7-fluoro-2-hydroxy-3,4-dihydro-2H-benzo[e][1,2]oxaborinine-8-carboxylic acid] | 4 to 8 mg/L (≈ 5.02 to 10 µM) | > 64 mg/L | > 64 mg/L |
| O=C(NCCS(=O)(=O)N1CCN(C(=O)N[C@@H](C(=O)N[C@H]2Cc3ccc(F)c(C(=O)O)c3OB2O)c2cc(F)c(O)c(O)c2Cl)C1=O)Nc1ccncc1 [Example 290, (R)-3-((R)-2-(2-chloro-5-fluoro-3,4-dihydroxyphenyl)-2-(2-oxo-3-((2-(3-(pyridin-4-yl)ureido)ethyl)sulfonyl)imidazolidine-1-carboxamido)acetamido)-7-fluoro-2-hydroxy-3,4-dihydro-2H-benzo[e][1,2]oxaborinine-8-carboxylic acid] | 16 to 32 mg/L (≈ 20.5 to 40.9 µM) | > 64 mg/L | > 64 mg/L |
| O=C(NCCCS(=O)(=O)N1CCN(C(=O)NC(C(=O)N[C@H]2Cc3ccc(F)c(C(=O)O)c3OB2O)c2cc(F)c(O)c(O)c2Cl)C1=O)Nc1ccncc1 (stereo partly drawn) [Example 291, (3R)-3-(2-(2-chloro-5-fluoro-3,4-dihydroxyphenyl)-2-(2-oxo-3-((3-(3-(pyridin-4-yl)ureido)propyl)sulfonyl)imidazolidine-1-carboxamido)acetamido)-7-fluoro-2-hydroxy-3,4-dihydro-2H-benzo[e][1,2]oxaborinine-8-carboxylic acid] | 16 to 32 mg/L (≈ 20.1 to 40.2 µM) | > 64 mg/L | > 64 mg/L |
| O=C(O)c1c(F)ccc2c1OB(O)[C@@H](NC(=O)C(NC(=O)N1CCN(Cc3ccc(O)c(O)c3Cl)C(=O)C1=O)c1cc(F)c(O)c(O)c1Cl)C2 (stereo partly drawn) [Example 292, (3R)-3-(2-(4-(2-chloro-3,4-dihydroxybenzyl)-2,3-dioxopiperazine-1-carboxamido)-2-(2-chloro-5-fluoro-3,4-dihydroxyphenyl)acetamido)-7-fluoro-2-hydroxy-3,4-dihydro-2H-benzo[e][1,2]oxaborinine-8-carboxylic acid] | > 64 mg/L | > 64 mg/L | > 64 mg/L |
| O=C(O)c1c(F)ccc2c1OB(O)[C@@H](NC(=O)C(NC(=O)N1CCN(C3CCN(C(=O)c4cccc(O)c4)CC3)C(=O)C1=O)c1cc(F)c(O)c(O)c1Cl)C2 (stereo partly drawn) [Example 293, (3R)-3-(2-(2-chloro-5-fluoro-3,4-dihydroxyphenyl)-2-(4-(1-(3-hydroxybenzoyl)piperidin-4-yl)-2,3-dioxopiperazine-1-carboxamido)acetamido)-7-fluoro-2-hydroxy-3,4-dihydro-2H-benzo[e][1,2]oxaborinine-8-carboxylic acid] | 16 to 32 mg/L (≈ 20.4 to 40.7 µM) | > 64 mg/L | > 64 mg/L |
| O=C(NCCCN1CCN(C(=O)N[C@@H](C(=O)N[C@H]2Cc3ccc(F)c(C(=O)O)c3OB2O)c2cc(F)c(O)c(O)c2Cl)C(=O)C1=O)c1ccncc1 [Example 294, (R)-3-((R)-2-(2-chloro-5-fluoro-3,4-dihydroxyphenyl)-2-(4-(3-(isonicotinamido)propyl)-2,3-dioxopiperazine-1-carboxamido)acetamido)-7-fluoro-2-hydroxy-3,4-dihydro-2H-benzo[e][1,2]oxaborinine-8-carboxylic acid] | 16 to 32 mg/L (≈ 21.5 to 43 µM) | > 64 mg/L | > 64 mg/L |
| O=C(NCCCN1CCN(C(=O)NC(C(=O)N[C@H]2Cc3ccc(F)c(C(=O)O)c3OB2O)c2cc(F)c(O)c(O)c2Cl)C(=O)C1=O)c1ccncc1Cl (stereo partly drawn) [Example 295, (3R)-3-(2-(2-chloro-5-fluoro-3,4-dihydroxyphenyl)-2-(4-(3-(3-chloroisonicotinamido)propyl)-2,3-dioxopiperazine-1-carboxamido)acetamido)-7-fluoro-2-hydroxy-3,4-dihydro-2H-benzo[e][1,2]oxaborinine-8-carboxylic acid] | 16 to 32 mg/L (≈ 20.5 to 41.1 µM) | > 64 mg/L | > 64 mg/L |
| O=C(NCCCN1CCN(C(=O)N[C@@H](C(=O)N[C@H]2Cc3ccc(F)c(C(=O)O)c3OB2O)c2cc(F)c(O)c(O)c2Cl)C(=O)C1=O)c1ccncc1O [Example 296, (R)-3-((R)-2-(2-chloro-5-fluoro-3,4-dihydroxyphenyl)-2-(4-(3-(3-hydroxyisonicotinamido)propyl)-2,3-dioxopiperazine-1-carboxamido)acetamido)-7-fluoro-2-hydroxy-3,4-dihydro-2H-benzo[e][1,2]oxaborinine-8-carboxylic acid] | 16 to 32 mg/L (≈ 21 to 42.1 µM) | > 64 mg/L | > 64 mg/L |
| Cc1cnccc1C(=O)NCCCN1CCN(C(=O)NC(C(=O)N[C@H]2Cc3ccc(F)c(C(=O)O)c3OB2O)c2cc(F)c(O)c(O)c2Cl)C(=O)C1=O (stereo partly drawn) [Example 297, (3R)-3-(2-(2-chloro-5-fluoro-3,4-dihydroxyphenyl)-2-(4-(3-(3-methylisonicotinamido)propyl)-2,3-dioxopiperazine-1-carboxamido)acetamido)-7-fluoro-2-hydroxy-3,4-dihydro-2H-benzo[e][1,2]oxaborinine-8-carboxylic acid] | 16 to 32 mg/L (≈ 21.1 to 42.2 µM) | > 64 mg/L | > 64 mg/L |
